The record followed here is patent US20080146499A1, “Identification of the Precise Amino Acid Sequence of the Epitope Recognized by the Potent Neutralizing Human Anti-Hiv-1 Monoclonal Antibody Igg1b12” (priority 2005, published 2008).

The target of assay [1] is biotinylated N-term peptide (biotin-…) (HIV-1). Nature of the assay: antigen capture ELISA, plates coated with IgG1 b12, biotinylated peptide detected with streptavidin alkaline phosphatase; reference: scrambled peptide. A general note: In an ELISA, binding on a coated surface is turned into a signal by an enzyme label.
A further assay deals with N terminal peptide. The settings on record: i.p. immunizations days 1, 15, 30, 45, 60; sera day 67; compared to control mice; FIG. 13 B.
For another assay, the system named is IgG1b12 antibody. Nature of the assay: Synthetic gp120 peptide binding to bead-linked IgG1b12, measured by mass spectrometry. Details: species or system human. The settings on record: synthetic peptides as starting material; FIG. 5.

No end group written: not given here. *: point of attachment. Biotin = O=C1N[C@H]2[C@H](CS[C@H]2CCCCC(=O)*)N1

Protocol for IgG1b12 antibody: The antibody was linked to cyanogen-bromide activated sepharose beads (Sigma-Aldrich, Oakville, Ontario). Epitope excision was performed to include potential conformational epitopes. The antibody-bead mixture was incubated with either MN or IIIB HIV-1 gp120 (ImmunoDiagnostics, Inc. Woburn, Mass.) or synthetic HIV-1 gp120 peptides (United Biochemical Research, Inc, Seattle, Wash., USA) for 2 hours under physiological conditions. After several washes, trypsin (Calbiochem-Novabiochem Corporation, San Diego, Calif., USA), or Glu-C (Roche Diagnostics Canada. Laval, Quebec) enzyme digests were performed. Unbound, digested material was washed away. Antibody-bound fragments protected from digestion were analyzed by mass spectrometry. Bead+antibody+peptide complex were spotted on a gold plate along with DHB matrix (Sigma-Aldrich, Oakville, Ontario) (3,4). The sample was analyzed on the prototypic QqTOF mass spectrometer by matrix-assisted laser desorption/ionization.
Epitope mapping experiments were performed using synthetic peptides. One peptide, the “N-term” (amino terminus) peptide was tested for it's binding to IgG1b12. The N-term sequence is as follows: [sequence]. A second peptide covered the CD4 binding site, including the isoleucine (I) residue.
Protocol for N terminal peptide: For immunogenicity studies, 4 groups of 4 BALB/c mice (16 total) were immunized intraperitoneally (i.p.) 5 times over 2 months. The first group of mice received PBS plus Freund's adjuvant in each immunization, and the second group received 10-50 kg gp120. The third and fourth groups received 10 μg biotinylated peptide (group 3 received N-term, group 4, scrambled) linked to avidin.
ELISAs to detect Ab responses in mice were carried out by coating 96 well plates with 2.5 μg/ml gp120 or 5 μg/ml biotinylated peptide overnight at 4° C. Blood was obtained by venous tail puncture, serum was obtained by collecting the supernatant of blood that had been incubated at 4° C. for one hour and centrifuged in an Eppendorf microcentrifuge (Centrifuge 5417C, Brinkmann Instruments, Ltd. Mississauga, ON) twice for 30 minutes at maximum speed. Serum was diluted at 1/50 down in doubling dilutions and incubated on plates for 2 hours at 37° C., washed, and HRP-goat anti-mouse secondary antibody (Southern Biotechnology Associates, Inc., Birmingham, Ala.) was added. ABTS substrate (Roche Diagnostics Canada, Laval, PQ) was used for detection. Plates were read at 405 nm on the Spectramax Plus.

Consider IgG1b12 human monoclonal antibody, for which, in assay [1], the fold binding against the scrambled peptide is 4 times.

As to “Biotin-LWVTVYYGVPVWKEATTTLFCASDAK [Nterm peptide]”, in the assay with gp120 (BALB/c mice, biotinylated peptide linked to avidin, i.p.), the “immunogenicity in the mouse model” value is given as “immunogenic”. For the same substance, the “serum antibodies binding whole gp120” value with gp120 (i.p. immunizations days 1, 15, 30, 45, 60, sera day 67, compared to control mice, FIG. 13 A) is “contains antibodies capable of binding both whole gp120 and N-terminal peptide”. In addition, in the assay on IgG1 b12 (antigen capture ELISA), the “binding to IgG1 b12 relative to the scrambled peptide” value came out at 4 times. For the same substance, in the assay with IgG1 b12 (plates coated with 2.5 μg/ml IgG1 b12, serially diluted biotinylated peptide, FIG. 11), the “peptide binding to IgG1 b12” value was “bound IgG1 b12, and this binding was dose dependant”. For the same substance, the “serum antibodies binding N-terminal peptide” value with N terminal peptide was “contains antibodies capable of binding both whole gp120 and N-terminal peptide”.

In the case of “KLWVTVYYGVPVWKEATTTLFCASDAKAYDTE [amino terminus]”, the “recognition of synthetic peptide by IgG1b12” value in the assay with IgG1b12 antibody is recorded as “specifically recognizes”.
